Test results: patent publication US10369123B2, “Perk activator for the treatment of neurodegenerative diseases” (DEUTSCHES ZENTRUM FÜR NEURODEGENERATIVE ERKRANKUNGEN E.V. …, priority 2014, dated 2019)

How the values were obtained:
[1] = system: LUHMES neurons overexpressing 4R-tau; assay: ATP assay, LUHMES neurons overexpressing 4R-tau; type: cell-based, human; conditions: lentiviral 4R-tau overexpression 10 days, co-administration of PERK modulator
Description: (§1) Nunc™ Nunclon™ Delta 6-well (for protein and mRNA) or 48-well (for cell assays) plates (Thermo Fisher Scientific, Waltham, Mass., USA) were coated with 100 μg/ml poly-L-lysine (Sigma-Aldrich, St. Louis, Mo., USA) and 5 μg/ml fibronectin (Sigma-Aldrich). LUHMES (Lund Human Mesencephalic) cells, derived from human embryonic ventral mesencephalic cells by conditional immortalization (Tet-off v-myc over-expression) were seeded out in a concentration of 130,000 cells/cm^2 to achieve a confluence of 50%. They were then differentiated for 8 days in a medium of DMEM/F12 (Sigma-Aldrich), 1 μg/ml tetracycline, […] and 490 μg/ml dbcAMP into post-mitotic neurons with a dopaminergic phenotype (Lotharius et al. 2005). […]
Concentrated lentiviral particles were titrated by transducing LUHMES cells with different dilutions at 6 hours after initiating differentiation. The lowest dilution at which at least 90% of cells expressed the transgene (as determined by immunohistochemistry of the cells fixed on day 2 post differentiation) was chosen for subsequent experiments. […]
ATP assays were conducted using the ViaLight™ plus kit by Lonza according to the manufacturer's instructions. Luminescence was read with the FLUOstar Omega (BMG Labtech) platereader. The data was analyzed using the MARS Data Analysis Software (BMG Labtech) and Prism 6.

PERK = molecular target: T1, PERK (Homo sapiens, UniProt Q9NZJ5); assay: Western blot for pEIF2A and pNRF2, annonacin model of tauopathy; type: cell-based; design: endogenous in cells; host or cells: LUHMES neurons (differentiated, human); in A5 transduced with lentivirus for 3R-/4R-tau or mCherry, not for PERK; conditions: in the presence of 25 nM annonacin, 48 h
T1 sequence (Q9NZJ5 30-1116): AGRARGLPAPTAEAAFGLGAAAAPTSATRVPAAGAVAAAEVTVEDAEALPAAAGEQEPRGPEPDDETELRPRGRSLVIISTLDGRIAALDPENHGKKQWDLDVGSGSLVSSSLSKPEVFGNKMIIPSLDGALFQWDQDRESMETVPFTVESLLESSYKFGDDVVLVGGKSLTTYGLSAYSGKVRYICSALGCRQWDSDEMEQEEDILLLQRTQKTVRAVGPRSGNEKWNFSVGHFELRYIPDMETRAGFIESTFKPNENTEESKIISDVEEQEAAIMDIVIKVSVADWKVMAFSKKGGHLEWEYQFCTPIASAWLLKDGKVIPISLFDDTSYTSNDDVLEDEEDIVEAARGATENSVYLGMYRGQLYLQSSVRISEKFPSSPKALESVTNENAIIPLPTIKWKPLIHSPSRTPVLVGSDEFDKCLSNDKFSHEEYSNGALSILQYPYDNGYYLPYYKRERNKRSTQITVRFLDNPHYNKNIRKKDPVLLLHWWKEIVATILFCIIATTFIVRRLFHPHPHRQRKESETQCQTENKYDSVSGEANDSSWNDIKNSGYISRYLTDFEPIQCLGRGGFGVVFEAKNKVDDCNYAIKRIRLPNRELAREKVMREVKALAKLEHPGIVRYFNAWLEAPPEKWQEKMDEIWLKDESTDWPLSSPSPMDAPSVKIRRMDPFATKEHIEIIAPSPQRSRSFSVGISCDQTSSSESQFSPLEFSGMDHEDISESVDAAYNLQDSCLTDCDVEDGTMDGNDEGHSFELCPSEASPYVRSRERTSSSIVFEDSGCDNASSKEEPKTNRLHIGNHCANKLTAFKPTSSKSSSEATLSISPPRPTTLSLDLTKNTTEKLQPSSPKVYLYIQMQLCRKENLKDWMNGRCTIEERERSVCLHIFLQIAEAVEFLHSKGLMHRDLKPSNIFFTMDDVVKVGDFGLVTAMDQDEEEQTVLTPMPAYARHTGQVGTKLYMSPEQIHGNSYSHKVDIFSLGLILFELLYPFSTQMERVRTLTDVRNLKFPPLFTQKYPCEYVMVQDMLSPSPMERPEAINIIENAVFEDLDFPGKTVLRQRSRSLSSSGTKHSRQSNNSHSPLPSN
Description: as §1
Protein was extracted by scraping the cells from the culture plate with Mammalian Protein Extraction Reagent (M-PER, Thermo Fisher Scientific) and 1× cOmplete Protease Inhibitor Cocktail Tablets (Hoffmann-La Roche, Basel, Switzerland) and 1× PhosSTOP Phosphatase Inhibitor Cocktail Tablets (Hoffmann-La Roche). […] Protein concentrations were determined using the BCA kit (Thermo Fisher Scientific) by heating the samples at 60° C. for 30 min and measuring the absorption on the NanoDrop 2000c Spectrophotometer (Thermo Fisher Scientific). […]

| Compound | 4R-specific toxicity in ATP assay [1] | pEIF2A level (PERK; PERK inhibitor 300 nM) | pNRF2 level (PERK; PERK activator 200 nM) |
| --- | --- | --- | --- |
| Cn1cc(-c2ccc3c(c2)CCN3C(=O)Cc2cccc(C(F)(F)F)c2)c2c(N)ncnc21 [GSK2606414, reference compound] | provided protection in the ATP assay, but to a lesser extent | reduced pEIF2A levels significantly |  |
| CCN(CC)CCC(=O)N1N=C(c2c(-c3ccccc3)c3cc(Br)ccc3[nH]c2=O)CC1c1ccc(Br)cc1 (stereo not shown) [CCT020312, 6-bromo-3-[5-(4-bromo-phenyl)-1-(3-diethylamino-propionyl)-4,5-dihydro-1H-pyrazol-3-yl]-4-phenyl-1H-quinolin-2-one] | reduced significantly |  | increased only pNRF2 significantly |
